From the NIST ThermoML archive (doi:10.1007/s10765-006-0051-4)
± gives the expanded uncertainty stated by the source.

Test: xn = mol fraction of the nth substance listed
Conditions: Gas, Oscillating disk viscometry

FC(F)C(F)(F)F [pentafluoroethane] + CCC
Conditions	viscosity [mPa·s]
298.15 K, 101.2 kPa, x1 = 0.7503	0.01219 ± 0.00044
298.15 K, 102 kPa, x1 = 0.5011	0.01122 ± 0.00042
298.15 K, 197.9 kPa, x1 = 0.7503	0.01223 ± 0.00044
298.15 K, 198.2 kPa, x1 = 0.5011	0.01121 ± 0.00042
298.15 K, 294.6 kPa, x1 = 0.7503	0.01221 ± 0.00044
298.15 K, 302.6 kPa, x1 = 0.5011	0.01121 ± 0.00042
298.15 K, 391.5 kPa, x1 = 0.7503	0.01222 ± 0.00044
298.15 K, 396.1 kPa, x1 = 0.5011	0.01123 ± 0.00042
298.15 K, 492.3 kPa, x1 = 0.7503	0.01223 ± 0.00044
298.15 K, 499.4 kPa, x1 = 0.5011	0.01123 ± 0.00042
298.15 K, 589.1 kPa, x1 = 0.7503	0.01225 ± 0.00044
298.15 K, 591.1 kPa, x1 = 0.5011	0.01124 ± 0.00042
298.15 K, 687.4 kPa, x1 = 0.5011	0.01125 ± 0.00042
298.15 K, 689 kPa, x1 = 0.7503	0.01229 ± 0.00044
298.15 K, 789 kPa, x1 = 0.5011	0.01128 ± 0.00042
298.15 K, 803.5 kPa, x1 = 0.7503	0.01229 ± 0.00044
298.15 K, 913.4 kPa, x1 = 0.7503	0.01235 ± 0.00044
298.15 K, 928.2 kPa, x1 = 0.5011	0.01131 ± 0.00042
298.15 K, 1012.4 kPa, x1 = 0.7503	0.01248 ± 0.00044
298.15 K, 1025.1 kPa, x1 = 0.5011	0.01138 ± 0.00042
298.15 K, 1231.3 kPa, x1 = 0.7503	0.01257 ± 0.00045
323.15 K, 101.8 kPa, x1 = 0.5011	0.01214 ± 0.00044
323.15 K, 102.2 kPa, x1 = 0.7503	0.01319 ± 0.00046
323.15 K, 199 kPa, x1 = 0.7503	0.01317 ± 0.00046
323.15 K, 213.9 kPa, x1 = 0.5011	0.01213 ± 0.00044
323.15 K, 294.9 kPa, x1 = 0.7503	0.0132 ± 0.00046
323.15 K, 391.1 kPa, x1 = 0.7503	0.01321 ± 0.00046
323.15 K, 395.8 kPa, x1 = 0.5011	0.01215 ± 0.00044
323.15 K, 519.4 kPa, x1 = 0.7503	0.01322 ± 0.00046
323.15 K, 592.8 kPa, x1 = 0.5011	0.01219 ± 0.00044
323.15 K, 636.3 kPa, x1 = 0.7503	0.01325 ± 0.00046
323.15 K, 766.4 kPa, x1 = 0.7503	0.01326 ± 0.00046
323.15 K, 788.9 kPa, x1 = 0.5011	0.01225 ± 0.00044
323.15 K, 883.2 kPa, x1 = 0.7503	0.01334 ± 0.00046
323.15 K, 983.8 kPa, x1 = 0.5011	0.01228 ± 0.00044
323.15 K, 1005.1 kPa, x1 = 0.7503	0.01339 ± 0.00047
323.15 K, 1125.1 kPa, x1 = 0.7503	0.01346 ± 0.00047
323.15 K, 1181.8 kPa, x1 = 0.5011	0.01241 ± 0.00044
323.15 K, 1249.7 kPa, x1 = 0.7503	0.01351 ± 0.00047
323.15 K, 1371.2 kPa, x1 = 0.7503	0.01361 ± 0.00047
323.15 K, 1374.9 kPa, x1 = 0.5011	0.01255 ± 0.00045
323.15 K, 1486.3 kPa, x1 = 0.7503	0.01367 ± 0.00047
323.15 K, 1618.9 kPa, x1 = 0.7503	0.01379 ± 0.00047
323.15 K, 1667.7 kPa, x1 = 0.5011	0.01272 ± 0.00045
323.15 K, 1736.1 kPa, x1 = 0.7503	0.01387 ± 0.00048
323.15 K, 1862.6 kPa, x1 = 0.5011	0.01289 ± 0.00046
323.15 K, 1864.4 kPa, x1 = 0.7503	0.01404 ± 0.00048
323.15 K, 1985.7 kPa, x1 = 0.5011	0.013 ± 0.00046
323.15 K, 1992.1 kPa, x1 = 0.7503	0.0142 ± 0.00049
323.15 K, 2071.4 kPa, x1 = 0.5011	0.01314 ± 0.00046
323.15 K, 2101.6 kPa, x1 = 0.7503	0.01435 ± 0.00049
323.15 K, 2211.6 kPa, x1 = 0.7503	0.01452 ± 0.00049
323.15 K, 2349.2 kPa, x1 = 0.7503	0.01482 ± 0.0005
348.15 K, 101.1 kPa, x1 = 0.5011	0.01295 ± 0.00046
348.15 K, 101.4 kPa, x1 = 0.7503	0.01409 ± 0.00048
348.15 K, 198.4 kPa, x1 = 0.5011	0.01299 ± 0.00046
348.15 K, 199.7 kPa, x1 = 0.7503	0.01407 ± 0.00048
348.15 K, 305.5 kPa, x1 = 0.5011	0.01297 ± 0.00046
348.15 K, 388.2 kPa, x1 = 0.7503	0.01416 ± 0.00048
348.15 K, 401.6 kPa, x1 = 0.5011	0.01296 ± 0.00046
348.15 K, 588.6 kPa, x1 = 0.7503	0.01424 ± 0.00049
348.15 K, 592.5 kPa, x1 = 0.5011	0.01307 ± 0.00046
348.15 K, 750.8 kPa, x1 = 0.7503	0.01427 ± 0.00049
348.15 K, 784.8 kPa, x1 = 0.5011	0.01316 ± 0.00046
348.15 K, 978.4 kPa, x1 = 0.7503	0.01432 ± 0.00049
348.15 K, 986 kPa, x1 = 0.5011	0.01318 ± 0.00046
348.15 K, 1173.8 kPa, x1 = 0.7503	0.01443 ± 0.00049
348.15 K, 1178.4 kPa, x1 = 0.5011	0.01326 ± 0.00046
348.15 K, 1374.6 kPa, x1 = 0.5011	0.01335 ± 0.00046
348.15 K, 1374.7 kPa, x1 = 0.7503	0.01455 ± 0.00049
348.15 K, 1565.7 kPa, x1 = 0.7503	0.01468 ± 0.0005
348.15 K, 1571.2 kPa, x1 = 0.5011	0.0135 ± 0.00047
348.15 K, 1770.2 kPa, x1 = 0.7503	0.01482 ± 0.0005
348.15 K, 1772.3 kPa, x1 = 0.5011	0.01362 ± 0.00047
348.15 K, 1960.9 kPa, x1 = 0.5011	0.01374 ± 0.00047
348.15 K, 1963.9 kPa, x1 = 0.7503	0.01499 ± 0.0005
348.15 K, 2130.4 kPa, x1 = 0.7503	0.01511 ± 0.00051
348.15 K, 2139.9 kPa, x1 = 0.5011	0.01387 ± 0.00048
348.15 K, 2297.9 kPa, x1 = 0.5011	0.01404 ± 0.00048
348.15 K, 2335.5 kPa, x1 = 0.7503	0.01538 ± 0.00051
348.15 K, 2492.4 kPa, x1 = 0.7503	0.01555 ± 0.00052
348.15 K, 2501 kPa, x1 = 0.5011	0.0143 ± 0.00049
348.15 K, 2660.6 kPa, x1 = 0.7503	0.01583 ± 0.00052
348.15 K, 2695.6 kPa, x1 = 0.5011	0.01451 ± 0.00049
348.15 K, 2804.7 kPa, x1 = 0.7503	0.01604 ± 0.00053
348.15 K, 2928.8 kPa, x1 = 0.7503	0.01629 ± 0.00053
348.15 K, 2932.5 kPa, x1 = 0.5011	0.01494 ± 0.0005
348.15 K, 3079.4 kPa, x1 = 0.7503	0.01666 ± 0.00054
348.15 K, 3111.7 kPa, x1 = 0.5011	0.01524 ± 0.00051
348.15 K, 3230.6 kPa, x1 = 0.7503	0.01697 ± 0.00055
348.15 K, 3383.2 kPa, x1 = 0.7503	0.01739 ± 0.00056
373.15 K, 101 kPa, x1 = 0.7503	0.01505 ± 0.00051
373.15 K, 101.5 kPa, x1 = 0.5011	0.01376 ± 0.00047
373.15 K, 220 kPa, x1 = 0.7503	0.01506 ± 0.00051
373.15 K, 225.5 kPa, x1 = 0.5011	0.01381 ± 0.00048
373.15 K, 389.7 kPa, x1 = 0.7503	0.0151 ± 0.00051
373.15 K, 397.7 kPa, x1 = 0.5011	0.01383 ± 0.00048
373.15 K, 585.6 kPa, x1 = 0.5011	0.01386 ± 0.00048
373.15 K, 637.7 kPa, x1 = 0.7503	0.01515 ± 0.00051
373.15 K, 781.4 kPa, x1 = 0.5011	0.01393 ± 0.00048
373.15 K, 877.8 kPa, x1 = 0.7503	0.01525 ± 0.00051
373.15 K, 980.5 kPa, x1 = 0.5011	0.01401 ± 0.00048
373.15 K, 1141.8 kPa, x1 = 0.7503	0.01537 ± 0.00051
373.15 K, 1174.2 kPa, x1 = 0.5011	0.01407 ± 0.00048
373.15 K, 1370.5 kPa, x1 = 0.5011	0.01413 ± 0.00048
373.15 K, 1477.4 kPa, x1 = 0.7503	0.01552 ± 0.00052
373.15 K, 1560.4 kPa, x1 = 0.5011	0.01422 ± 0.00049
373.15 K, 1717 kPa, x1 = 0.7503	0.01566 ± 0.00052
373.15 K, 1753.9 kPa, x1 = 0.5011	0.01434 ± 0.00049
373.15 K, 1949.4 kPa, x1 = 0.5011	0.01447 ± 0.00049
373.15 K, 1961.1 kPa, x1 = 0.7503	0.01583 ± 0.00052
373.15 K, 2125.3 kPa, x1 = 0.5011	0.01458 ± 0.00049
373.15 K, 2185.2 kPa, x1 = 0.7503	0.01605 ± 0.00053
373.15 K, 2318.9 kPa, x1 = 0.5011	0.01469 ± 0.0005
373.15 K, 2415.9 kPa, x1 = 0.7503	0.01623 ± 0.00053
373.15 K, 2508.1 kPa, x1 = 0.5011	0.01487 ± 0.0005
373.15 K, 2631.2 kPa, x1 = 0.7503	0.01641 ± 0.00054
373.15 K, 2708.4 kPa, x1 = 0.5011	0.01508 ± 0.00051
373.15 K, 2950.3 kPa, x1 = 0.7503	0.01679 ± 0.00055
373.15 K, 2961.4 kPa, x1 = 0.5011	0.01536 ± 0.00051
373.15 K, 3209.9 kPa, x1 = 0.7503	0.01714 ± 0.00055
373.15 K, 3217 kPa, x1 = 0.5011	0.01568 ± 0.00052
373.15 K, 3421.2 kPa, x1 = 0.7503	0.01749 ± 0.00056
